How the values were obtained:
[1] = target: Abl (Ableson tyrosine kinase) (Homo sapiens, UniProt P00519); experiment: Kinase assay Abl; format: biochemical; settings: Table 3 selectivity panel; read-out: Kinase specificity IC50 Abl
Description: (§1) Kinase assays. […] This was achieved by measurement of incorporation of radioactive phosphate from ATP into appropriate polypeptide substrates. Recombinant protein kinases and kinase complexes were produced or obtained commercially. Assays were performed using 96-well plates and appropriate assay buffers (typically 25 mM β-glycerophosphate, 20 mM MOPS, 5 mM EGTA, 1 mM DTT, 1 mM […], pH 7.4), into which were added 2-4 μg of active enzyme with appropriate substrates. The reactions were initiated by addition of Mg/ATP mix (15 mM MgCl2+100 μM ATP with 30-50 kBq per well of [γ-^32P]-ATP) and mixtures incubated as required at 30° C. Reactions were stopped on ice, followed by filtration through p81 filterplates or GF/C filterplates (Whatman Polyfiltronics, Kent, UK). After washing 3 times with 75 mM aq orthophosphoric acid, plates were dried, scintillant added and incorporated radioactivity measured in a scintillation counter (TopCount, Packard Instruments, Pangbourne, Berks, UK). Compounds for kinase assay were made-up as 10 mM stocks in DMSO and diluted into 10% DMSO inrassay buffer.

[2] = target: SAPK2a (stress-activated protein kinase 2a) (Homo sapiens, UniProt Q16539); experiment: Kinase assay SAPK2a; format: biochemical; settings: Table 3 selectivity panel; read-out: Kinase specificity IC50 SAPK2a
SAPK2a (stress-activated protein kinase 2a), sequence (Q16539 whole entry, species assumed): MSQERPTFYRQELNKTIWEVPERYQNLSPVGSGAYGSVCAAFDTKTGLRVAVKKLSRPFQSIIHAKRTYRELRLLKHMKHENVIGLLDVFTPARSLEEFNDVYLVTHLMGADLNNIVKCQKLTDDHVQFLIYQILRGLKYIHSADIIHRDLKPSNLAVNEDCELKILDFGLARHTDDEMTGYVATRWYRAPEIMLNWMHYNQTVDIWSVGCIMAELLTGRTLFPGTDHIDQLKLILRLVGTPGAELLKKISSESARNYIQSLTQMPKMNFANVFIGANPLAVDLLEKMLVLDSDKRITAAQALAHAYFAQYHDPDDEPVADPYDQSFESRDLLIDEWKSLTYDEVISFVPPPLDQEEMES
Description: as §1

[3] = system: AGS; experiment: 72-h MTT cytotoxicity assay AGS; format: cell-based; settings: Homo sapiens, Table 5, Gastric adenocarcinoma
Description: MTT cytotoxicity assay. […] Standard 72-h MTT (thiazolyl blue; 3-[4,5-dimethylthiazol-2-yl]-2,5-diphenyltetrazolium bromide) assays were performed (Haselsberger, K.; Peterson, D. C.; Thomas, D. G.; Darling, J. L. Anti Cancer Drugs 1996, 7, 331-8; Loveland, B. E.; Johns, T. G.; Mackay, I. R.; Vaillant, F.; Wang, Z. X.; Hertzog, P. J. Biochemistry International 1992, 27, 501-10). In short: cells were seeded into 96-well plates according to doubling time and incubated overnight at 37° C. Test compounds were made up in DMSO and a 1/3 dilution series prepared in 100 μL cell media, added to cells (in triplicates) and incubated for 72 ho at 37° C. MTT was made up as a stock of 5 mg/mL in cell media and filter-sterilised. Media was removed from cells followed by a wash with 200 μL PBS.
MTT solution was then added at 20 μL per well and incubated in the dark at 37° C. for 4 h. MTT solution was removed and cells again washed with 200 μL PBS. MTT dye was solubilised with 200 μL per well of DMSO with agitation.

[4] = system: HIV-1 (clinical paediatric strain RoJo or WeJo) in human PBMCs; experiment: Anti-HIV efficacy evaluation in fresh human PBMCs; format: cell-based; settings: for IC50 / IC90: Human immunodeficiency virus 1, PBMC, 168 h, seven days following infection; for IC50: concentration inhibiting virus replication by 50%; for IC90: concentration inhibiting virus replication by 90%
Description: Representative compounds of the present invention were tested for antiviral activity against HIV-1 in human peripheral blood mononuclear cells (PBMCs) using the clinical paediatric HIV strain RoJo or WeJo. PBMCs were cultured under conditions which promote cell survival and HIV replication. Antiviral activity was tested for from 6-9 log10 serial dilutions of a 100 μM compound stock solution in DMSO.
Fresh PBMCs, seronegative for HIV and HBV, were isolated from screened donors (Interstate Blood Bank, Inc. Memphis, Term.). Cells were pelleted/washed 2-3 times by low speed centrifugation and re-suspension in PBS to remove contaminating platelets. […] Banded PBMCs were gently aspirated from the resulting interface and subsequently washed with PBS by low speed centrifugation. After the final wash, cells were enumerated by trypan blue exclusion and re-suspended in RPMI 1640 supplemented with fetal bovine serum (FBS), and L-glutamine, Phytohemagglutinin (PHA-P, Sigma). The cells were allowed to incubate at 37° C. After incubation, PBMCs were centrifuged and resuspended in RPMI 1640 with FBS, L-glutamine, penicillin, streptomycin, gentamycin, and recombinant human IL-2 (R&D Systems, Inc). IL-2 is included in the culture medium to maintain the cell division initiated by the PHA mitogenic stimulation. PBMCs were maintained in this with bi-weekly medium changes until used in the assay protocol. Cells were kept in culture for a maximum of two weeks before being deemed too old for use in assays and discarded. Monocytes were depleted from the culture as the result of adherence to the tissue culture flask.
For the standard PBMC assay, PHA-P stimulated cells from at least two normal donors were pooled, diluted and plated in the interior wells of a 96-well round bottom microplate. Pooling of mononuclear cells from more than one donor was used to minimise the variability observed between individual donors, which results from quantitative and qualitative differences in HIV infection and overall response to the PHA and IL-2 of primary lymphocyte populations. Each plate contained virus/cell control wells (cells plus virus), experimental wells (drug plus cells plus virus) and compound control wells (drug plus media […], necessary for MTS monitoring of cytotoxicity). Since HIV-1 is not cytopathic to PBMCs, this allows the use of the same assay plate for both antiviral activity and cytotoxicity measurements. Test drug dilutions were prepared in microtiter tubes and each concentration was placed in appropriate wells using the standard format. A predetermined dilution of virus stock was placed in each test well (final MOI≅0.1). The PBMC cultures were maintained for seven days following infection at 37° C., 5% CO2. After this period, cell-free supernatant samples were collected for analysis of reverse transcriptase activity and/or HIV p24 content. Following removal of supernatant samples, compound cytotoxicity was measured by addition of MTS to the plates for determination of cell viability. Wells were also examined microscopically and any abnormalities were noted.
Reverse transcriptase activity assay: A microtiter plate-based reverse transcriptase (RT) reaction was utilised (Buckheit et al., AIDS Research and Human Retroviruses 7:295-302, 1991). Tritiated thymidine triphosphate (^3H-TTP, 80 Ci/mmol, NEN) was received in 1:1 dH2O:Ethanol at 1 mCi/mL. Poly rA:oligo dT template:primer (Pharmacia) was prepared as a stock solution, followed by aliquoting and storage at −20° C. The RT reaction buffer was prepared fresh on a daily basis. The final reaction mixture was prepared by combining ^3H-TTP, dH2O, poly rA:oligo dT stock and reaction buffer. This reaction mixture was placed in a round bottom microtiter plate and supernatant containing virus was added and mixed. The plate was incubated at 37° C. for 60 minutes. Following incubation, the reaction volume was spotted onto DE81 filter-mats (Wallac), in a sodium phosphate buffer or 2×SSC (Life Technologies). […]

Abl (Ableson tyrosine kinase), sequence (P00519 whole entry, species assumed): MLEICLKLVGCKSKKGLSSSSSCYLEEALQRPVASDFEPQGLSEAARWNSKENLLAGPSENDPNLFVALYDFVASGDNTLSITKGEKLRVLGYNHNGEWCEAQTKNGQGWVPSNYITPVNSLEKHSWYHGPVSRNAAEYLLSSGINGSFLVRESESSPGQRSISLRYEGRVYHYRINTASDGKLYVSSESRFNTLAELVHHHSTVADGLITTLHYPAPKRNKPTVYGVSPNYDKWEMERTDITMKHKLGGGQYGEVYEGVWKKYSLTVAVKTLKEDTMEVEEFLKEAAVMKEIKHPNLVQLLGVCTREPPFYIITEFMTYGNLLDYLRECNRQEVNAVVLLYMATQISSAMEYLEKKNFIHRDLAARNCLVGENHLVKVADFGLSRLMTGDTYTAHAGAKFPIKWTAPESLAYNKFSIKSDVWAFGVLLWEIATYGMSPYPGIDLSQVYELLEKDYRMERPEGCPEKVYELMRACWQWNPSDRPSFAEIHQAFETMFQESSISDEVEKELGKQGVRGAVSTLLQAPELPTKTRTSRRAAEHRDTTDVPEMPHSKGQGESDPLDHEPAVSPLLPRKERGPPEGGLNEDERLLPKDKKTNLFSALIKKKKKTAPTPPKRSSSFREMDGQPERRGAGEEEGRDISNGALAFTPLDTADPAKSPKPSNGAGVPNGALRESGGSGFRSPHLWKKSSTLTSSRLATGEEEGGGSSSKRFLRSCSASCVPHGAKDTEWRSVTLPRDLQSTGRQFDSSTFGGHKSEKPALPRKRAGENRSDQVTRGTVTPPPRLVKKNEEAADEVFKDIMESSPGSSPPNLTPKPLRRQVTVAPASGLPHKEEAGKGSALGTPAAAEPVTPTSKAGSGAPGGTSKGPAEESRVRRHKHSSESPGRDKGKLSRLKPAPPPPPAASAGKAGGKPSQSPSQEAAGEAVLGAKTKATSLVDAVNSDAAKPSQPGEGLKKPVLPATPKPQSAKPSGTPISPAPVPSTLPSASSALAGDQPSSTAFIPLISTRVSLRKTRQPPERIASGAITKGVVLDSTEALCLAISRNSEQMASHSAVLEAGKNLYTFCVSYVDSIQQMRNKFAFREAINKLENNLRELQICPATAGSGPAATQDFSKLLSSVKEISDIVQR

SMILES	IC50 [1]	IC50 [2]	IC50 [3]	IC50 [4]	IC90 [4]	anti-viral effect in cell based assays [4]
CC[C@@H](N)C(=O)Nc1nc(C)c(-c2ccnc(Nc3cccc([N+](=O)[O-])c3)n2)s1 [Compound 16, (2R)-2-Amino-N-{4-methyl-5-[2-(3-nitro-phenylamino)-pyrimidin-4-yl]-thiazol-2-yl}-butyramide]	1500 nM	> 100000 nM	300 nM	–	–	–
Cc1nc(C)c(-c2ccnc(Nc3ccc(NC(=O)CN4CCCC4)cc3)n2)s1 [Compound 53, N-{4-[4-(2,4-Dimethyl-thiazol-5-yl)-pyrimidin-2-ylamino]-phenyl}-2-pyrrolidin-1-yl-acetamide]	–	–	–	812 nM	871 nM	–
Cc1nc(NC(=O)[C@H](N)[C@@H](C)O)sc1-c1ccnc(Nc2cccc([N+](=O)[O-])c2)n1 [Compound 15, (2R,3R)-2-Amino-3-hydroxy-N-{4-methyl-5-[2-(3-nitro-phenylamino)-pyrimidin-4-yl]-thiazol-2-yl}-butyramide]	760 nM	> 100000 nM	1100 nM	124 nM	385 nM	–
CCNc1nc(C)c(-c2ccnc(Nc3ccc(N4CCOCC4)cc3)n2)s1 [Compound 4, [4-(2-Ethylamino-4-methyl-thiazol-5-yl)-pyrimidin-2-yl]-(4-morpholin-4-yl-phenyl)-amine]	–	–	–	166 nM	295 nM	–
CNc1nc(C)c(-c2ccnc(Nc3ccc(N4CCOCC4)cc3)n2)s1 [Compound 3, [4-(2-N-Methylamino-4-methyl-thiazol-5-yl)-pyrimidin-2-yl]-(4-morpholinophenyl)-amine]	50000 nM	> 100000 nM	–	297 nM	679 nM	–
Cc1nc(N)sc1-c1ccnc(Nc2ccc(N3CCOCC3)cc2)n1 [Compound 1, [4-(2-Amino-4-methyl-thiazol-5-yl)-pyrimidin-2-yl]-(4-morpholin-4-yl-phenyl)-amine]	–	> 100000 nM	1100 nM	1330 nM	2640 nM	particularly effective anti-viral agent
CNc1nc(C)c(-c2ccnc(Nc3ccc(N4CCN(Cc5ccccc5)CC4)cc3)n2)s1 [Compound 11, [4-(4-Benzyl-piperazin-1-yl)-phenyl]-[4-(4-methyl-2-methylamino-thiazol-5-yl)-pyrimidin-2-yl]-amine]	72000 nM	> 100000 nM	1300 nM	–	–	–
